In patent US8198432B2, “Porphyrin-based compounds for tumor imaging and photodynamic therapy” (Health Research, Inc., priority 2005, dated 2012):
Where “and” joins values, the source holds several entries; their conditions need not be identical. Equal values may be shown once.

Tests used:
[1] = test system: RIF tumor cells; experiment: in vitro photosensitizing efficacy (PDT, MTT assay) in RIF tumor cells; type: cell-based; set-up: in vitro photosensitizing efficacy compared with HPPH: dose or concentration left out as unconfirmed
Procedure: For evaluating in vitro photosensitizing efficacy of 3-iodobenxyloxyethyl-pyropheophorbide-a 2, RIF tumor cells were grown in alpha-DMEM with 10% fetal calf serum, penicillin and streptomycin. Cells were maintained in 5% CO2, 95% air and 100% humidity. For determining the PDT efficacy, these cells were plated in 96-well plates and a density of 1×10^4 cells well in complete media. After overnight incubation to allow the cells to attach, the HPPH and the related cold-iodo derivative 2 were individually added at variable concentrations. After 3 hr incubation in the dark at 37° C., the cells were washed once with PBS, and irradiated with light. After light treatment, the cells were washed once and placed in complete media and incubated for 48 hrs. Then 10 μl of a 4-mg/ml solution of MTT was added to each well. After incubating for 4 hr at 37° C. the MTT+ media were removed and 100 μl DMSO was added to solubilize the formazin crystals. The 96-well plate was read on a microtiter plate reader at an absorbance of 560 nm. The optimal cell kill was obtained at a concentration of 1.00 µM. The results were plotted as percent survival of the corresponding dark (drug no light) control for each compound tested. (FIG. 4) Each data point represents the mean from 3 separate experiments, and the error bars are the standard deviation. Each experiment used 5 replicate wells.

[2] = test system: RIF cells; experiment: preliminary screening of aromatic alkyl ethers for in vitro and in vivo efficacy (RIF cells); type: cell-based
Description: There are several methods for labeling the compounds with iodine isotopes. Conversion of the cold iodo- to radioactive iodo- is possible, but the specific activity of the resulting product is low. […] Therefore, we prepared a series of aromatic alkyl ethers and evaluated them for in vitro (RIF cells) and in vivo efficacy (RIF cells).

[3] = test system: RIF tumors; experiment: in vivo photosensitizing efficacy, tumor re-growth after laser light; conditions: C3H mice bearing RIF tumors, light at 665 nm for 30 minutes
Procedure: The in vivo efficacy was determined in C3H mice bearing RIF tumors (5 mice/group). The tumors were exposed to light at 665 nm (in vivo absorption) with a laser light ([…]) for 30 minutes. The tumor-regrowth was measured everyday (for details see ‘Methods’ part of the project). […] Further studies to optimize the treatment conditions at variable fluence and fluence-rates and time intervals are currently in progress.

[4] = biodistribution of the I-124 PET agent in selected organs; type: in vivo, mice; set-up: unit not given here; conditions: 48 h post injection, per gram of organ
Procedure: After PET imaging at 48 h post-injection, a group of mice (3 mice/group) were sacrificed and the biodistribution of the I-124 PET agent in selected organs/gram were determined.

[5] = test system: RIF tumors; experiment: in vivo tumor imaging with small animal PET scanner; conditions: C3H mice bearing RIF tumors
Procedure: In initial experiments, the 1-124 labeled photosensitizer 2 at variable radioactive doses (35, 50 and 100 µCi) was injected in three sets of C3H mice (3 mice/group, bearing RIF tumors at the shoulder) respectively and the images were taken with a small animal PET scanner at 24, 48 and 72 h time intervals (FIG. 6 images A, B, and C). In all radioactive doses, the best images were obtained at 48 h post injection of the drug.

In the case of `CCC1=C(C)c2cc3[nH]c(cc4nc(c5c6[nH]c(cc1n2)c(C)c6C(=O)C5)[C@@H](CCC(=O)OC)[C@@H]4C)c(C)c3C(C)OCc1cccc(I)c1` (stereo partly drawn) [Compound 2], the “concentration at which the optimal cell kill was obtained” value ([1]; 3 hr incubation in the dark, light, MTT after 48 hrs) is reported as 1.00 µM, the “in vitro photosensitizing efficacy compared with HPPH” value ([1]; FIG. 4) is reported as “slightly more effective” and the “efficacy in preliminary screening compared with HPPH” value [2] is reported as “as effective as HPPH”. For the same molecule, the “time at which tumor re-growth was observed” value ([3]; dose 0.25 […]mole/kg) was 10 days post-injection, the “time at which tumor re-growth was observed” value ([3]; dose 0.50 […]mole/kg) was 15 days post-injection and the “in vivo efficacy (PDT)” value ([3]; dose of 1.0 and 1.5 µmol/kg, 24 hours post injection) was “quite effective”.
In the case of `CCC1=C(C)c2cc3[nH]c(cc4nc(c5c6[nH]c(cc1n2)c(C)c6C(=O)C5)[C@@H](CCC(=O)OC)[C@@H]4C)c(C)c3C(C)OCc1cccc([124I])c1` (stereo partly drawn) [I-124 labeled photosensitizer 4], the “biodistribution, Blood” value ([4]; AVG of 3 mice) is reported as 1.12, the “biodistribution, Gut” value ([4]; AVG of 3 mice) is reported as 2.47 and the “biodistribution, Heart” value ([4]; AVG of 3 mice) is reported as 0.99. The “biodistribution, Kidney” value ([4]; AVG of 3 mice) was 1.10, the “biodistribution, Liver” value ([4]; AVG of 3 mice) was 3.31 and the “biodistribution, Lungs” value ([4]; AVG of 3 mice) was 1.09. The “biodistribution, Muscle” value ([4]; AVG of 3 mice) was 0.35, the “biodistribution, Spleen” value ([4]; AVG of 3 mice) was 2.11 and the “biodistribution, Stomach” value ([4]; AVG of 3 mice) was 1.02. The “biodistribution, Tumor” value ([4]; AVG of 3 mice) was 2.22, the “biodistribution, Blood” value ([4]; individual mouse (Mouse 1-3)) was 1.47 and 1.33 and 0.57 and the “biodistribution, Gut” value ([4]; individual mouse (Mouse 1-3)) was 3.6 and 2.22 and 1.69. The “biodistribution, Heart” value ([4]; individual mouse (Mouse 1-3)) was 0.79 and 1.21 and 0.98, the “biodistribution, Kidney” value ([4]; individual mouse (Mouse 1-3)) was 1.09 and 1.21 and 0.99 and the “biodistribution, Liver” value ([4]; individual mouse (Mouse 1-3)) was 3.46 and 3.22 and 3.26. For the same molecule, the “biodistribution, Lungs” value ([4]; individual mouse (Mouse 1-3)) was 0.99 and 1.29 and 1.00, the “biodistribution, Muscle” value ([4]; individual mouse (Mouse 1-3)) was 0.18 and 0.49 and 0.37 and the “biodistribution, Spleen” value ([4]; individual mouse (Mouse 1-3)) was 2.04 and 2.23 and 2.05. The “biodistribution, Stomach” value ([4]; individual mouse (Mouse 1-3)) was 1.3 and 0.66 and 1.10, the “biodistribution, Tumor” value ([4]; individual mouse (Mouse 1-3)) was 2.4 and 2.15 and 2.10 and the “presence of the compound in organs other than tumor on PET images” value [5] was “especially in liver was evident”.
